Assay results taken from patent publication US20170107462A1, “ARRAY OF FABRIC TREATMENT PRODUCTS” (The Procter & Gamble Company, priority 2015, published 2017).

Assay: Blocker Index (BI), expert graders on malodorous fabric swatches
Design: key: 0-3 malodor scale; 0 = clean untreated swatch
Description: Blocker materials suitable for use in consumer products of the present invention are chosen for their ability to decrease malodor, while not interfering with perception of a fragrance. Material selection is done by assigning two indices to a test sample material from two reference scales in order to rank odor strengths. The two reference scales are the Fragrance Fidelity Index (FFI) scale and the Blocker Index (BI) scale. The FFI ranks the ability of the test sample material to impart a perceivable odor which could cause interference when combined with another fragrance and the BI ranks the ability of the test sample material to reduce malodor perception. The two methods for assigning the indices to a test sample on the FFI and the BI reference scales are given below.
The first step in the method for assigning a BI to a test sample material on the BI reference scale is to create the BI reference swatches. […] Fabric swatches for this test are white knit polycotton (4 inch×4 inch) swatches from EMC ordered as PC 50/50. The supplier is instructed to strip the swatches first, stripping involves washing twice with a fragrance-free detergent and rinsing three times.
The BI scale contains one clean swatch with no malodor applied. […] These solutions are pipetted to the middle of the swatches. […] After drying for 30 minutes in a vented hood, the swatches are wrapped in aluminum foil to prevent odor contamination to the treated swatch. A clean untreated swatch is also included as the lowest anchor point of reference for malodor strength on the BI scale. The BI reference scale swatches should be used within 0.5 to 12 hours and discarded after 12 hours. The swatches are used as scale anchor points when graders evaluate a test sample(s) and are assigned a Blocker Index (BI) as show in Table 12.
The perfumer/expert grader is asked to rank order swatches according to a scale between 0 and 3.
The reference swatches represent the 0, 1, 2, and 3 BIs on the BI reference scale, Table 12. […]

CC(C)CC(=O)O [isovaleric acid]
BI grade of reference swatch, individual Expert Grader (stripped swatch with 2 μL 0.08% isovaleric acid): 2.0 | BI grade of reference swatch, individual Expert Grader (stripped swatch with 5 μL 0.08% isovaleric acid): 2.0 | BI grade of reference swatch, individual Expert Grader (stripped swatch with 20 μL 0.08% isovaleric acid): 3.0
